Experimental data from ChEMBL document CHEMBL4308853, “Design, Synthesis, and Pharmacological Evaluation of Novel β2/3 Subunit-Selective γ-Aminobutyric Acid Type A (GABAA) Receptor Modulators” (J Med Chem, 2018).
pEC50: −log10 of the molar value. Calls of active or inactive are those of the source.

What was measured:
[1] = target: T1, GABA-A receptor; alpha-1/beta-2/gamma-2 (Homo sapiens, UniProt P14867+P18507+P47870); test: Positive allosteric modulation of GABA-A alpha1beta2gamma2S receptor (unknown origin) expressed in Xenopus laevis oocytes assessed as increase in GABA-induced chloride current after 15 mins at -70 mV holding potential by two-microelectrode voltage clamp method; type: cell-based
T1 sequence (P14867 whole entry): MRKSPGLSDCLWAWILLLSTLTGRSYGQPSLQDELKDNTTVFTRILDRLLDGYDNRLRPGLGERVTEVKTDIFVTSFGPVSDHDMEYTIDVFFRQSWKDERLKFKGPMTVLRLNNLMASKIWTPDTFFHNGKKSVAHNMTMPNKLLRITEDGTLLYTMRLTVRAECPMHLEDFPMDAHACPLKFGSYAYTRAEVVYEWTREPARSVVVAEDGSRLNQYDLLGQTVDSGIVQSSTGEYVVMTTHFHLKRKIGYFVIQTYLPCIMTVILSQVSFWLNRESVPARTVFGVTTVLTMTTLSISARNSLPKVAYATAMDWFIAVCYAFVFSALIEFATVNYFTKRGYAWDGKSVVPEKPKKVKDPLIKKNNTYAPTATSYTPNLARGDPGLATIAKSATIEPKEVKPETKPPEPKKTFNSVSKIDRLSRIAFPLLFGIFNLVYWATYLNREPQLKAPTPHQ
T1 sequence (P47870 whole entry): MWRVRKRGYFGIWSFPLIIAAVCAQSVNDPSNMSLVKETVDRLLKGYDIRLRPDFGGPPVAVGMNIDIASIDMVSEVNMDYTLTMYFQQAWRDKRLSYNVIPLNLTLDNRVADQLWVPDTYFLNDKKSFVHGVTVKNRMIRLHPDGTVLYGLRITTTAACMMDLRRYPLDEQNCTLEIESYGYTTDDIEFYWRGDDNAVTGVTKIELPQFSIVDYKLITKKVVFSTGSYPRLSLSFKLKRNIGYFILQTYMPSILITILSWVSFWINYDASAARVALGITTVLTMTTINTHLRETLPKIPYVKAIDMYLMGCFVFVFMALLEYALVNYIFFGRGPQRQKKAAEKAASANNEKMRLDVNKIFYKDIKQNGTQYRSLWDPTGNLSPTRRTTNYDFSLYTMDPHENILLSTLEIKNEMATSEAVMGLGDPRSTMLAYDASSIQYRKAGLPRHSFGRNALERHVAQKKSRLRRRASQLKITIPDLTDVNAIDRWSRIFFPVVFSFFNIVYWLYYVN
T1 sequence (P18507 whole entry): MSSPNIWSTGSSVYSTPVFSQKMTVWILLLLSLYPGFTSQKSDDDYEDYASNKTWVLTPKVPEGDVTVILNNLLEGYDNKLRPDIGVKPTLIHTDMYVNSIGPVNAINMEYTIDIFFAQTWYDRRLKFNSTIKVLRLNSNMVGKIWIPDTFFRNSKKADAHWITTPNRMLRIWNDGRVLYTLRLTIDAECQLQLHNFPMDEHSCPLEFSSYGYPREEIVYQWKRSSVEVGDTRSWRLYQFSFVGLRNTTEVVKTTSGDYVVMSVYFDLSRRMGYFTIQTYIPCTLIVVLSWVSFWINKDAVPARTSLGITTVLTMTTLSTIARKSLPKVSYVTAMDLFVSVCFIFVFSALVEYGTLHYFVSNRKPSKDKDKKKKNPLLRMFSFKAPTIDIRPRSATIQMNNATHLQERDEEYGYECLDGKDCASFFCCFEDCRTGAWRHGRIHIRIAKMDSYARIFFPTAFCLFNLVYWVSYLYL

[2] = target: T2, GABA-A receptor; alpha-1/beta-3/gamma-2 (Homo sapiens, UniProt P14867+P18507+P28472); test: Positive allosteric modulation of GABA-A alpha1beta3gamma2S receptor (unknown origin) expressed in Xenopus laevis oocytes assessed as increase in GABA-induced chloride current after 15 mins at -70 mV holding potential by two-microelectrode voltage clamp method; type: cell-based
T2 sequence (P14867 whole entry): T1 sequence (P14867 whole entry)
T2 sequence (P18507 whole entry): T1 sequence (P18507 whole entry)
T2 sequence (P28472 whole entry): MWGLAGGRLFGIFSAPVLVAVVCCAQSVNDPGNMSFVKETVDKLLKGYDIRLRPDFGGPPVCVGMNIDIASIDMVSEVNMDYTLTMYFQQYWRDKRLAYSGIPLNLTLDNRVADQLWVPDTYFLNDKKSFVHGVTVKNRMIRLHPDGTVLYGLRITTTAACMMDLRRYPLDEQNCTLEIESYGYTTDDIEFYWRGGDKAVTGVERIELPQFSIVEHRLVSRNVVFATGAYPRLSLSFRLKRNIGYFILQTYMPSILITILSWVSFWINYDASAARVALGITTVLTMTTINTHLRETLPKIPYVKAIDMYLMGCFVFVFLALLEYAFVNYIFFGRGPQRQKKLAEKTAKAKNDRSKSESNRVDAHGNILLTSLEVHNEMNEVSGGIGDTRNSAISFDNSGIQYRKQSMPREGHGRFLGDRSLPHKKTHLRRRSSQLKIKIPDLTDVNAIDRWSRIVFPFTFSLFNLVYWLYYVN

Mus musculus [3] = test: Anticonvulsive activity in C57BL/6N mouse assessed as protection against 49 +/- 1.8 mg/kg pentylenetetrazole-induced seizures by measuring elevation in seizure threshold at 10 mg/kg, ip pretreated for 30 mins followed by pentylenetetrazole tail-vein infusion; type: functional, organism-based
[4] = target: T3, GABA-A receptor; anion channel (Rattus norvegicus) (UniProt O09028+P15431+P18506+P18508+P19969+P20236+P23574+P23576+P28471+P28473+P30191+P62813+P63079+P63138+Q91ZM7+Q9ES14); test: Positive allosteric modulation of GABA-A receptor in Sprague-Dawley rat primary hippocampal neurons assessed as channel-mediated tonic current at 30 uM pretreated for 300 secs followed by BMI addition for 10 secs at -70 mV holding potential by patch-clamp method (reference value: -63 pA); type: protein-complex assay
[5] = target: T3, GABA-A receptor; anion channel (Rattus norvegicus); test: Positive allosteric modulation of GABA-A receptor in Sprague-Dawley rat primary hippocampal neurons assessed as miniature inhibitory postsynaptic current amplitude at 10 uM for 300 secs at -70 mV holding potential by patch-clamp method; type: protein-complex assay; design: scale not given: the % may be the effect or the level left
Mus musculus [6] = test: Anticonvulsive activity in C57BL/6N mouse assessed as protection against 52.6 +/- 2.1 mg/kg pentylenetetrazole-induced seizures by measuring elevation in seizure threshold at 0.3 mg/kg, ip pretreated for 30 mins followed by pentylenetetrazole tail-vein infusion; type: functional, organism-based
[7] = target: T3, GABA-A receptor; anion channel (Rattus norvegicus); test: Positive allosteric modulation of GABA-A receptor in Sprague-Dawley rat primary hippocampal neurons assessed as channel-mediated tonic current at 10 uM pretreated for 300 secs followed by BMI addition for 10 secs at -70 mV holding potential by patch-clamp method; type: protein-complex assay
[8] = target: T3, GABA-A receptor; anion channel (Rattus norvegicus); test: Positive allosteric modulation of GABA-A receptor in Sprague-Dawley rat primary hippocampal neurons assessed as increase in channel-mediated tonic current at 10 uM for 300 secs at -70 mV holding potential by patch-clamp method; type: protein-complex assay
[9] = target: T4, Neuronal acetylcholine receptor; alpha4/beta2 (Homo sapiens) (UniProt P17787+P43681); test: Negative allosteric modulation of alpha4beta2 nAChR (unknown origin) expressed in Xenopus laevis oocytes assessed as decrease in acetylcholine-induced channel current at 100 uM at -70 mV holding potential by two-microelectrode voltage clamp method relative to control; type: cell-based
[10] = target: T5, GABA A receptor alpha-1/beta-1/gamma-2 (Homo sapiens, UniProt P14867+P18505+P18507); test: Positive allosteric modulation of GABA-A alpha1beta1gamma2S receptor (unknown origin) expressed in Xenopus laevis oocytes assessed as increase in GABA-induced chloride current after 15 mins at -70 mV holding potential by two-microelectrode voltage clamp method; type: cell-based
T5 sequence (P14867 whole entry): T1 sequence (P14867 whole entry)
T5 sequence (P18507 whole entry): T1 sequence (P18507 whole entry)
T5 sequence (P18505 whole entry): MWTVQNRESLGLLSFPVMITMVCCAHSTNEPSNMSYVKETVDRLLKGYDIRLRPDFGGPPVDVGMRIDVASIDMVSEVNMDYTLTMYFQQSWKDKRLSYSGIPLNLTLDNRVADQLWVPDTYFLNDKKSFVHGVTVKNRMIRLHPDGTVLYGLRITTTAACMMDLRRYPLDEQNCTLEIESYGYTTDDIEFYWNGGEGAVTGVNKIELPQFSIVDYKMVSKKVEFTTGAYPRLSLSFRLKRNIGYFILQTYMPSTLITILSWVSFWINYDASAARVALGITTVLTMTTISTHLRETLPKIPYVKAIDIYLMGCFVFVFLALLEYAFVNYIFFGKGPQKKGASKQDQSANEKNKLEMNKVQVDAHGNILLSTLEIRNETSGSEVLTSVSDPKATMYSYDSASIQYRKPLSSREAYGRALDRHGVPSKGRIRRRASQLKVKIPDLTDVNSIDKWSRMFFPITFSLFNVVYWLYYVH

[11] = target: GABA-A receptor; alpha-1/beta-3/gamma-2 (Homo sapiens, UniProt P14867+P18507+P28472, F289S); test: Positive allosteric modulation of GABA-A alpha1beta3(F289S)gamma2S mutant receptor (unknown origin) expressed in Xenopus laevis oocytes assessed as increase in GABA-induced chloride current after 15 mins at -70 mV holding potential by two-microelectrode voltage clamp method; type: cell-based
[12] = target: Glutamate [NMDA] receptor (Homo sapiens) (UniProt Q05586+Q12879+Q13224+O15399+O60391+Q14957+Q8TCU5); test: Positive allosteric modulation of NMDA receptor (unknown origin) expressed in Xenopus laevis oocytes assessed as increase in NMDA-induced channel current at 10 to 100 uM at -70 mV holding potential by two-microelectrode voltage clamp method; type: cell-based
[13] = target: Transient receptor potential cation channel subfamily V member 1 (Homo sapiens) (UniProt Q8NER1); test: Agonist activity at TRPV1 receptor (unknown origin) expressed in Xenopus laevis oocytes assessed as increase in channel current at 10 to 100 uM at -70 mV holding potential by two-microelectrode voltage clamp method; type: cell-based
Chain of Transient receptor potential cation channel subfamily V member 1 (Homo sapiens) (Q8NER1 whole entry): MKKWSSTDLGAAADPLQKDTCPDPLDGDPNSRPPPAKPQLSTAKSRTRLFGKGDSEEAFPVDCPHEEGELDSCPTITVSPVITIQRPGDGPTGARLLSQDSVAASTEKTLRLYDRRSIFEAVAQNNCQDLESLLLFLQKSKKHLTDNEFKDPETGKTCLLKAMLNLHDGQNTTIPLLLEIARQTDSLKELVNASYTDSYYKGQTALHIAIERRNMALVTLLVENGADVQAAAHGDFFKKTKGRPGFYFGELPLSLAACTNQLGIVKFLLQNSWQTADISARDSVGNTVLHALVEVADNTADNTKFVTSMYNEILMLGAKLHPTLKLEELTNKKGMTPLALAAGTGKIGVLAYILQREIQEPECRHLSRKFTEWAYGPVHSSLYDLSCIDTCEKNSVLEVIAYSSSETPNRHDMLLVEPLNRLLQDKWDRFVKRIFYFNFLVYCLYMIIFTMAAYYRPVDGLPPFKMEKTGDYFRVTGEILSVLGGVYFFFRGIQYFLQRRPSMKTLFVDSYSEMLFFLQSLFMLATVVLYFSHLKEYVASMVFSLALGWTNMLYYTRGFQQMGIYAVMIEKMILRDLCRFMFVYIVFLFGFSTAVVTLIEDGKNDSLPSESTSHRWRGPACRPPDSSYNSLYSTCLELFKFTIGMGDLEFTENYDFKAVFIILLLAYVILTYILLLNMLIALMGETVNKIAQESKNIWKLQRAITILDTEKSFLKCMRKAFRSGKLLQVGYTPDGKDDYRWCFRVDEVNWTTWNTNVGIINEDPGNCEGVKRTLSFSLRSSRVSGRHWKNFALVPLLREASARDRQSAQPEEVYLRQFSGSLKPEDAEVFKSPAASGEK

[14] = target: T3, GABA-A receptor; anion channel (Rattus norvegicus); test: Positive allosteric modulation of GABA-A receptor in Sprague-Dawley rat primary hippocampal neurons assessed as prolongation of miniature inhibitory postsynaptic current decay time at 10 uM for 300 secs at -70 mV holding potential by patch-clamp method; type: protein-complex assay; design: scale not given: the % may be the effect or the level left
[15] = target: GABA-A receptor; alpha-1/beta-3/gamma-2 (Homo sapiens, UniProt P14867+P18507+P28472, N265S); test: Positive allosteric modulation of GABA-A alpha1beta3(N265S)gamma2S mutant receptor (unknown origin) expressed in Xenopus laevis oocytes assessed as increase in GABA-induced chloride current after 15 mins at -70 mV holding potential by two-microelectrode voltage clamp method; type: cell-based
[16] = target: T4, Neuronal acetylcholine receptor; alpha4/beta2 (Homo sapiens); test: Positive allosteric modulation of alpha4beta2 nAChR (unknown origin) expressed in Xenopus laevis oocytes assessed as increase in acetylcholine-induced channel current at 10 to 100 uM at -70 mV holding potential by two-microelectrode voltage clamp method; type: cell-based
[17] = target: GABA A receptor alpha-1/beta-1/gamma-2 (Homo sapiens, UniProt P14867+P18505+P18507, S290N); test: Positive allosteric modulation of GABA-A alpha1beta1(S290N)gamma2S mutant receptor (unknown origin) expressed in Xenopus laevis oocytes assessed as increase in GABA-induced chloride current after 15 mins at -70 mV holding potential by two-microelectrode voltage clamp method; type: cell-based
Oocyte = test: Induction of current in Xenopus laevis oocytes at 10 to 100 uM after 5 mins by two-microelectrode voltage clamp method; type: cell-based
[18] = target: T5, GABA A receptor alpha-1/beta-1/gamma-2; test: Positive allosteric modulation of GABA-A alpha1beta1gamma2S receptor (unknown origin) expressed in Xenopus laevis oocytes assessed as increase in GABA-induced chloride current at 300 uM after 15 mins at -70 mV holding potential by two-microelectrode voltage clamp method relative to control; type: cell-based; conditions: 0.25 h
Mus musculus [19] = test: Anticonvulsive activity in C57BL/6N mouse assessed as protection against 39.5 +/- 0.8 mg/kg pentylenetetrazole-induced seizures by measuring elevation in seizure threshold at 0.1 to 0.3 mg/kg, ip pretreated for 30 mins followed by pentylenetetrazole tail-vein infusion; type: functional, organism-based
[20] = target: Metabotropic glutamate receptor 2 (Homo sapiens) (UniProt Q14416); test: Positive allosteric modulation of mGluR2 (unknown origin) expressed in Xenopus laevis oocytes assessed as increase in glutamate-induced channel current at 10 to 100 uM at -70 mV holding potential by two-microelectrode voltage clamp method; type: cell-based
Chain of Metabotropic glutamate receptor 2 (Homo sapiens) (Q14416 19-872 limits assumed): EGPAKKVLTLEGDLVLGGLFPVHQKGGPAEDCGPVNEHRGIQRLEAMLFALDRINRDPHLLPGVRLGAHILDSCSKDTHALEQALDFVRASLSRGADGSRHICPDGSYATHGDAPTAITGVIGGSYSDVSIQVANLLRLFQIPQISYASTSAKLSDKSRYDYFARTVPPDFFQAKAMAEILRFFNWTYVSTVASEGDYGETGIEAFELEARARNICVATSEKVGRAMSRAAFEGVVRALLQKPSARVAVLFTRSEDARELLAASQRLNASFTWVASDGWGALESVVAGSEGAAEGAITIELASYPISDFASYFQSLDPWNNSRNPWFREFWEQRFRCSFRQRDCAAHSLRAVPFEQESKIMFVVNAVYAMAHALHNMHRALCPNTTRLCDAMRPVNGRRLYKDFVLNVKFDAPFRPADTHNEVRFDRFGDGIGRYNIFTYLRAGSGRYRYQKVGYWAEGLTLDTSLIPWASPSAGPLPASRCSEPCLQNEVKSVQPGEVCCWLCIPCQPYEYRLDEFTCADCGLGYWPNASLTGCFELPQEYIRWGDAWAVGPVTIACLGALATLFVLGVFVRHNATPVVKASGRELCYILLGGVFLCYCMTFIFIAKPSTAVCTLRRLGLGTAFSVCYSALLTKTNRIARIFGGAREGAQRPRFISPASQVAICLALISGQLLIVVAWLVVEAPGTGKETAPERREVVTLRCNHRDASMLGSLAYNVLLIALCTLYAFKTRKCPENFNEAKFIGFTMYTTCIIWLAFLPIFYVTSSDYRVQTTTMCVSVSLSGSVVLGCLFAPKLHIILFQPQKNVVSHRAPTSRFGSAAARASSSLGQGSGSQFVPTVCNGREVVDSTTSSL

[21] = target: T3, GABA-A receptor; anion channel (Rattus norvegicus); test: Positive allosteric modulation of GABA-A receptor in Sprague-Dawley rat primary hippocampal neurons assessed as miniature inhibitory postsynaptic current mean frequency at 10 uM for 300 secs at -70 mV holding potential by patch-clamp method; type: protein-complex assay; design: scale not given: the % may be the effect or the level left

C/C(=C(/C#N)C(N)=O)c1ccc(Cl)cc1Cl
pEC50 [1]: 4.19
pEC50 [2]: 4.26

CC(=C(C#N)C(N)=O)c1ccc(Cl)cc1Cl (mixture of isomers)
pEC50 [2]: 4.17

CC1=C2[C@H](/C=C(\C)C(=O)O)CC[C@@H](C)[C@H]2CC1 [VALERENIC ACID]
pEC50 [2]: 4.72
Activity (Mus musculus [3]): Active
Activity [4]: -115 pA

C/C(C#N)=C\c1ccc(C)cc1Cl
pEC50 [2]: 4.36

C/C(=C/C#N)c1ccc(Cl)cc1Cl
Activity [5]: 97%
Activity (Mus musculus [6]): Active
Activity [7]: -38 pA
pEC50 [1]: 4.82
Activity [8]: Active
inhibition [9]: 70%
pEC50 [10]: 3.83
pEC50 [11]: 3.77
pEC50 [2]: 4.89
Activity [12]: inactive
Activity [13]: inactive
Activity [14]: 213%
pEC50 [15]: 3.99
Activity [16]: inactive
pEC50 [17]: 5.00
Activity (Oocyte): Non-Toxic
Emax at 300 µM [18]: 883%
Activity (Mus musculus [19]): Active
Activity [20]: inactive
Activity [21]: 78%

CC(=CC#N)c1ccc(C)cc1Cl (mixture of isomers)
pEC50 [1]: 4.39
pEC50 [10]: 3.57
pEC50 [2]: 4.39

C/C(=C\C#N)c1ccc(Cl)cc1Cl
pEC50 [2]: 4.00

CC(CC#N)c1ccc(Cl)cc1Cl (racemic)
pEC50 [2]: 3.92

C/C(C#N)=C\c1ccc(Cl)cc1Cl
pEC50 [2]: 4.04

Cl/C(=C\n1cncn1)c1ccc(Cl)cc1Cl [LORECLEZOLE]
pEC50 [2]: 4.96

C/C(=C(\C#N)C(N)=O)c1ccc(Cl)cc1Cl
pEC50 [1]: 4.40
pEC50 [2]: 4.36
